Data: paper PMC5180209 (Structure (London, England : 1993), 2016)

Molecular target: B56 (Homo sapiens, UniProt Q13362)
Assay: Isothermal titration calorimetry
Format: binding
Details: ITC

Substance	reduction of binding to B56 on removing residue 676 altogether (668KLpSPIIED675 compared with the 668-676 peptides)	increase of binding affinity for B56 as the salt concentration is reduced (salt concentration 300 mM to 150 mM)
KLpSPIIED	~ 1.7 fold	
KLpSPIIEDE		~ 3.6 fold
